# In patent US20250170079A1, “COMBINATIONS OF STAT-INHIBITORS AND IMMUNE CHECKPOINT INHIBITORS FOR THE TREATMENT AND/OR MANAGEMENT OF CANCER” (Tvardi Therapeutics, Inc., priority 2022, published 2025):
# Columns and labels:
# [1] = Bioavailability and pharmacokinetics of TTI-101 following IP or PO administration; format: in vivo, male Sprague-Dawley rats; conditions: PO 25 mg/kg vs IP 25.6 mg/kg, single dose, rats
# Method: Bioavailability and pharmacokinetics of TTI-101 in male Sprague-Dawley rats were evaluated following a single oral (PO) dose at 25 mg/kg (in labrasol:PEG400, 60:40% v/v) and a single intraperitoneal (IP) dose at 25.6 mg/kg (pH 7.4 PBS/propylene glycol/ethanol/DMSO, 20:70:5:5% v/v).
# [2] = system: subcutaneous liver cancer syngeneic model H22; experiment: In vivo efficacy study of TTI-101 ± anti-PD-1 in subcutaneous liver cancer syngeneic model H22; design: species or system female BALB/c mice; conditions: TTI-101 1.2 mg/mouse p.o. BID*3 weeks and/or anti-PD-1 10 mg/kg i.p. BIW*3 weeks
# Description: The objective of efficacy study was to evaluate preclinically the in vivo therapeutic efficacy of TTI-101 alone and in combination with anti-PD-1 in the treatment of subcutaneous liver cancer syngeneic model H22 in female BALB/c mice. The objective of rechallenge study was to evaluate immune memory of the female BALB/c mice previously cured from subcutaneous liver cancer syngeneic model H22 by TTI-101 combined with anti-PD-1.
# Dosing volume of Anti-PD-1 (clone RMP1-14) was adjusted for body weight. The concentration of anti-PD-1 was 1 mg/mL, and dosing volume was 10 μL/g. The anti-PD-1 dosing solution was prepared by diluting 1.372 mL of anti-PD-1 (8.2 mg/mL) with 9.878 mL of PBS.
# A composition of TTI-101 (72 mg/mL) dissolved in Kolliphor RH40, PEG600, Labrasol, Tween 20, and citric acid solution, was then dispersed in 1:2 water (vortexed) to form the dosing emulsion. The concentration of TTI-101 in the dosing emulsion was 24 mg/mL.
# The H22 tumor cells were maintained in vitro with RPMI1640 medium supplemented with 10% fetal bovine serum (FBS) at 37° C. in an atmosphere of 5% CO2 in air. The cells in exponential growth phase were harvested and quantitated by cell counter before tumor inoculation.
# In efficacy study, each mouse was inoculated subcutaneously in the right front flank region with tumor cells (1×10^6) in 0.1 ml of PBS for tumor development.
# The randomization in efficacy study started when the mean tumor size reached approximately 73 mm^3 (for groups 1-5) and 96 mm^3 (for groups 6-9). Totally 82 mice were enrolled in the study and randomly allocated to 9 study groups, with 10 mice per group (groups 1-5) and 8 mice per group (groups 6-9). Randomization was performed based on “Matched distribution” method (Study Director TM software, version 3.1.399.19). The date of randomization was denoted as Day 1.
# Test articles were given between 8 am-9 am then again between 4 pm-5 pm.
# For group 5, TTI-101 was initiated 5 days post anti-PD-1 dosing per the request.
# Tumor volumes were measured twice per week after randomization in two dimensions using a caliper, and the volume was expressed in mm^3 using the formula: V=(L×W×W)/2, where V is tumor volume, L is tumor length (the longest tumor dimension) and W is tumor width (the longest tumor dimension perpendicular to L). Dosing as well as tumor and body weight measurements were conducted in a Laminar Flow Cabinet.
# Tumor growth inhibition (TGI), T/C value and Survival was applied at the endpoint.
# Tumor regression (REG)=[(T0−Ti)/T0]×100%;
# Tumor Growth Inhibition; TGI %=(1−Ti/Ci)*100;
# Treatment/Control (T/C) value (%) is an indicator of tumor response to treatment, and one of commonly used anti-tumor activity endpoint; T and C are the mean tumor volumes of the treatment and control groups, respectively, on a given day. […]
# [3] = Day 21, vs vehicle+isotype group
smiles,measurement,setting,value
"COc1ccc(S(=O)(=O)Nc2cc(-c3c(O)ccc4ccccc34)c(O)c3ccccc23)cc1 [TTI-101, N-(1′,2-dihydroxy-1,2′-binaphthalen-4′-yl)-4-methoxybenzenesulfonamide]",greater exposure by oral administration compared to interperitoneal administration,[1],90%
same,T/C (%) on Day 21,[2]; [3],78.33%
same,TGI (%) on Day 21,[2]; [3],21.67%
same,"CR Ratio (tumor complete response, tumor regressed to 0)",[2]; animals with CR / animals per group,0/10
same,Tumor volume (mm^3) (N) on Day 21,"[2]; mean ± SEM, Day 21",2073.36 mm^3
